Assay type in all cases: cell-based, human
The test system of one assay is CLS1. As to the kind of experiment: Drug resistance assay (MTT), CLS1. The settings on record: 48 h drug treatment, CLS1 after CAF removal. As to the method:
(§1) An MTT [3-(4,5-dimethylthiazolyl-2)-2,5-diphenyltetrazolium bromide] (Sigma) assay was performed to determine cell proliferation. Briefly, CLS1/CAF and CLS1 cells were added to 96-well plates at a density of 5×10^3 cells/well. After incubating for 24 h, the cells were serum-starved overnight. The cells were then treated with different concentrations (0-50 μM) of the drugs docetaxel, cisplatin, etoposide and vinorelbine for 48 h. After 48 h, the culture medium containing 0.5 mg/ml MTT was added to each well. After 1.5 h of incubation, the medium was removed, and DMSO was added to the plates. The color intensity of the solubilized formazan was measured at 570 nm in an ELISA plate reader (Vector3; Perkin-Elmer, USA).

The test system of another assay is CLS1/CAF. As to the kind of experiment: Drug resistance assay (MTT), CLS1/CAF. The settings on record: 48 h drug treatment, CLS1 co-cultured with CAFs. As to the method: as §1
The next assay has as its system Nanog. As to the kind of experiment: RT Q-PCR analysis of the stem cell marker Nanog. The settings on record: for Nanog expression in CLS1 cells treated with cytokine: IGF-II 10 ng/ml, HGF 10 ng/ml, sCD14 500 ng/ml (FIG. 4f). As to the method:
The expression level of stemness-related genes and validation of the Affymetrix microarray data for CAF, CLS1/CAF and CLS1 were performed through RT Q-PCR using an ABI Prism 7900 Sequencer (Applied Biosystems).
TATA-box binding protein (TBP) and β-actin were used as internal controls. The expression levels were normalized to TBP and defined as −ΔCT=−[CTtarget−CTTBP]. The relative expression ratio was calculated as the fold change relative to the control (2^−ΔΔCT). The experiments were performed in triplicate.

Assay [1] deals with lung cancer cells co-cultured with CAFs. As to the kind of experiment: Image-based high-content analysis of Nanog-positive cells per colony. The protocol:
Lung CSCs or cancer cells (200 cells/well) were added to 96-well plates pre-seeded with CAFs (2000 cells/well) and were allowed to attach to the plates overnight. After different treatments, cells were processed following the immunofluorescence protocol with the Nanog (ReproCELL) (1:300) primary antibody (as the cancer stem-cell marker) and the mouse anti-human CD90 FITC-conjugated (5E10, BD Pharmingen) antibody (as the CAF marker) overnight at 4° C. Next, the primary antibodies were incubated with the TRITC-conjugated secondary antibody [goat anti-rabbit IgG (H+L) Conjugate, Invitrogen] for 2 h at room temperature. The nuclei were counterstained with the Hoechst 33342 dye (Invitrogen). To determine the background fluorescence level of the secondary antibody, each plate included control wells containing only the secondary antibody (stained with the Hoechst 33342 dye). Images of the stained cells were acquired using the automated fluorescence microscopy platform.
Image acquisition and analysis were performed as follows. Stained cells were imaged using the high-content analysis platform with a 4× objective. […] The images were analyzed using the MetaXpress® software (Molecular Devices). […] Finally, the TRITC-stained cell count and the total cell count were determined. The stemness of each colony was calculated as the ratio of Nanog-positive (TRITC-stained) cells to total cells. […]

For another assay, the system named is CLS1 cells. As to the kind of experiment: Ultra-low sphere-forming assay, CLS1. The settings on record: IGF-II 10 and 100 ng/ml, 21 days (FIG. 5b). As to the method:
An ultra-low sphere-forming assay was performed as previously described (Dontu, et al., 2003) and modified as the following procedures. A single-cell suspension of lung CSCs in MCDB201 serum-free medium (Invitrogen) supplemented with 20 ng/ml EGF (Sigma) and 20 ng/ml bFGF (Invitrogen) was seeded in ultra-low adherent 24-well plates (Corning, Corning, N.Y., USA; 200 viable cells/well). The medium was supplemented with fresh growth factors twice weekly. After 3 weeks, the spheres were examined under the Axiovert 200 microscope.

In the next assay the test system is ALDH activity. As to the kind of experiment: ALDEFLUOR assay (flow cytometry). The settings on record: CLS1/CAFs, A549, H1975 and EKVX; IGF-II 100 ng/ml (FIG. 15). As to the method:
ALDH activity of cells was measured using the ALDEFLUOR assay kit (StemCell Technologies) based on the manufacturer's protocol and a previous report. Ginestier, et al., 2007. After different treatments, the cells were suspended in the ALDEFLUOR assay buffer containing the ALDH substrate BODIPY-aminoacetaldehyde (BAAA, 1 mM per 1×10^6 cells, incubate 30 min at 37° C.). As a negative control, the cell sample was treated with diethylaminobenzaldehyde (DEAB), a specific ALDH inhibitor. Nonviable cells were identified by propidium iodide staining and analysis using the FACSAria instrument (Becton Dickinson).
In general terms: Flow cytometry measures light scatter and fluorescence of single cells or particles in a stream.

For assay [2], the system named is IGF1R-p/IGF1R, AKT-p/AKT and Nanog. As to the kind of experiment: Western blot analysis of IGF1R, AKT and Nanog. The settings on record: CLS1, CL141 and CL152; IGF-II 10 or 100 ng/ml, time-dependent (FIG. 5c). As to the method:
The detailed procedures were performed as described in Zoller, Nat Rev Cancer 11:254-267 (2011). The primary antibodies for p-IGF1R (Y1316, 6113S; 1:1000), p-AKT (D9E; 1:1000), AKT (927L; 1:1000) and Nanog (D73G4; 1:1000) were purchased from Cell Signaling Technology, Inc., and the primary antibody for IGF1R (C-20; 1:1000) was purchased from Santa Cruz. Monoclonal mouse anti-β-actin (Chemicon, Millipore; 1:5000) was used as a loading control. The membranes were then washed three times with TBST, followed by incubation with horseradish peroxidase (HRP)-conjugated secondary antibody (1:5,000) in TBST/2% skim milk. Bound antibody was detected using the Enhanced Chemiluminescence System (Santa Cruz, Calif.). Chemiluminescent signals were captured using the Fujifilm LAS 3000 system (Fujifilm, Tokyo, Japan). All experiments were performed at least three times in duplicate.
(In general: Immunoblotting shows a protein as a band on a membrane.)

The term IC50 denotes the point on the concentration scale where inhibition reaches its midpoint. A high value points to weaker potency.

On to `CC(=O)O[C@@]12CO[C@@H]1C[C@H](O)[C@@]1(C)C(=O)[C@H](O)C3=C(C)[C@@H](OC(=O)[C@H](O)[C@@H](NC(=O)OC(C)(C)C)c4ccccc4)C[C@@](O)([C@@H](OC(=O)c4ccccc4)[C@H]21)C3(C)C` [Docetaxel], for which the IC50 was determined as 4.2 nM with CLS1 (Homo sapiens) and 54.8 nM in the assay with CLS1/CAF (Homo sapiens).
With “HGF: hepatocyte growth factor, cytokine added to CLS1 cells”, the “Nanog expression in CLS1 cells treated with cytokine” value in the assay with Nanog is reported as “induced”.
As to `COc1cc([C@@H]2c3cc4c(cc3[C@H](O)[C@H]3COC(=O)[C@@H]23)OCO4)cc(OC)c1OC` [PPP, picropodophyllin], in assay [1] (A549, EKVX, CLS1, CL141 and CL152 co-cultured with CAFs, antibody 1 μg/ml, inhibitors 1 μM/ml (FIG. 6a)), the “Nanog-positive cells in each colony” value was “significantly inhibited”.
As to `COc1cc([C@@H]2c3cc4c(cc3[C@@H](O[C@@H]3O[C@@H]5CO[C@@H](C)O[C@H]5[C@H](O)[C@H]3O)[C@H]3COC(=O)[C@H]23)OCO4)cc(OC)c1O` [Etoposide (VP-16), Etoposide], the results for the IC50 in the assay with CLS1 (Homo sapiens) and in the assay with CLS1/CAF (Homo sapiens) were 1060 nM and 109000 nM, respectively.
Turning to “IGF-II: growth factor secreted by CAFs, added as cytokine to cancer cells”, the “sphere numbers and size” value in the assay with CLS1 cells was “enlarged”. For the same compound, the ALDEFLUOR-positive ratio entry in the assay with ALDH activity is listed as “increased”. For the same compound, in assay [2], the “IGF1R and Akt phosphorylation and downstream Nanog expression” value is given as “induced”. For the same compound, the “number of Nanog-positive cells per colony” value in assay [1] (IGF-II 10 and 100 ng/ml, CLS1 cells (FIG. 14b)) is given as “facilitated”. For the same compound, in the assay with Nanog (CLS1, A549, H1975 and H460 treated with IGF-II 100 ng/ml (FIG. 5a)), the Nanog expression result was “increased”. Moreover, the “Nanog expression in CLS1 cells treated with cytokine” value in the assay with Nanog is “induced”.
As for `N.N.[Cl][Pt][Cl]` [Cisplatin], the IC50 in the assay on CLS1 was found to be 200 nM; in the assay with CLS1/CAF, 310 nM.
In the case of `CCC1=C[C@@H]2CN(C1)Cc1c([nH]c3ccccc13)[C@@](C(=O)OC)(c1cc3c(cc1OC)N(C)[C@H]1[C@@](O)(C(=O)OC)[C@H](OC(C)=O)[C@]4(CC)C=CCN5CC[C@]31[C@@H]54)C2` [Vinorelbine ditartrate], the IC50 in the assay on CLS1 (Homo sapiens) worked out at 28.5 nM; in the assay with CLS1/CAF (Homo sapiens), 775 nM.

For the origin of these results see patent US10865388B2, “Method for identifying anti-cancer agents using an in vitro cell culture system that maintains cancer cell stemness” (National Taiwan University, priority 2014, dated 2020).
